Experimental findings from US11975095B2, “Callus lysate comprising high content of callus metabolite and preparation method thereof” (BIOSPECTRUM, INC., priority 2020, dated 2024) are described below.

Each structure is given as a SMILES string.

The nature of the assay: Anti-oxidation: DPPH free radical scavenging. The following applies: positive control at 400 μg/ml. As to the method: The antioxidant activity was evaluated by measuring the ability of scavenging a free radical, DPPH (1,1-diphenyl-2-picrylhydrazyl). DPPH, a radical with a color, was used to directly determine the radical scavenging ability of the sample.
50 μl of each sample of Examples 1 to 13 and Comparative Examples 1 to 5 was mixed with 1 ml of a 100 μM DPPH solution. The resultant mixture was subjected to reaction and incubation at 20° C. (room temperature) at 30 minutes. Then, the amount of the remaining DPPH was determined through the absorbance measurement at 517 nm.
Upon completion of the reaction, the free radical scavenging activity (%) of the sample was calculated according to Equation 3 below. In this regard, the positive control was 400 μg/ml of ascorbic acid, and the blank was purified water. Radical Scavenging Ability (%)={1−(absorbance of sample-added group/absorbance of sample-free group)×100} [Equation 3]
(In general: Loss of DPPH colour is used to gauge radical scavenging.)

As for `O=C1O[C@H]([C@@H](O)CO)C(O)=C1O` [Ascorbic acid], the “Free radical scavenging ability” value turned out to be 80.7%.
